We go through 23 molecules from the OPERA property sets (Mansouri et al. 2018).

A word on the logP: it is the decadic logarithm of the partition coefficient of the neutral form, usually between octanol and water. Higher therefore signals higher lipophilicity.

Molecule `CNc1cnccn1` gave a logP of 0.56.

`Fc1cnccn1` returned a logP of 0.29.

The molecule `CN(C)c1cnccn1` gave a logP of 0.93.

`N#Cc1cnccn1` came in with a logP of -0.01.

For the molecule `CCOc1ccccn1`, the logP was determined as 1.81.

In turn, `CC(=O)c1cnccn1` came in with a logP of 0.2.

Consider `Fc1ccccn1`, for which the logP turned out to be 0.84.

The molecule `CNc1ccccn1` had a logP of 1.12.

`CCCOc1cnccn1` yielded a logP of 1.84.

As to `CC(=O)Nc1cnccn1`, the logP is -0.03.

With `CN(C)c1ccccn1`, the logP was 1.65.

Turning to `COc1cnccn1`, the logP came to 0.73.

In the case of `Clc1cnccn1`, the logP was 0.7.

`CSc1ccccn1`: the lipophilicity (logP) amounted to 1.71.

Take `CCOC(=O)c1cnccn1`: the logP is 0.28.

On to `CN(C)C(=O)c1ccccn1`, for which the logP is -0.45.

For `CCCOc1ccccn1`, the logP worked out at 2.38.

`CN(C)C(=O)c1cnccn1` came in with a logP of -0.8.

Regarding `COc1ccccn1`, the logP was 1.34.

Molecule `CCc1cnccn1` came in with a logP of 0.69.

As to `COC(=O)c1cnccn1`, the logP was -0.23.

For the molecule `CSc1cnccn1`, the logP was determined as 1.17.

In the case of `CCOc1cnccn1`, the logP was 1.28.
